Data set [1] is described as follows: in vivo. The note with it: mouse, in vivo, po.
Data set [2] concerns mouse. The data set can be described thus: in vivo. The note with it: oral route, even at a dose of 4,000 mg./kg.
Data set [3] relates to edema induced by carrageenan. The data set is described as follows: Anti-inflammatory activity, carrageenin-induced oedema. Type of data set: in vivo, rat. The note with it: po; 500 mg/kg p.o. rat; read-out: % inhibition of edema induced by carrageenan. The source says: Beginning, therefore, with D-glucose, we have prepared 1,2:5,6-di-O-isopropylidene-α-D-glucofuranose (II): [drawing 2] as well as 1,2-O-isopropylidene-α-D-glucofuranose and 1,2-O-isopropylidene-3,5,6-tri-O-benzyl-α-D-glucofuranose (1; Glen W. L., Myers G. S., Grant G. A., J. Chem. Soc., 2568/1951; (2) Meyer A. S., Reichstein T., Helv. Chim. Acta, 29, 139/1946; (3) Huber G., Rossi A., Helv. Chim. Acta, 51, 1185/1968) and have compared these compounds with (I) for anti-inflammatory activity against carrageenin-induced oedema (500 mg/kg, p.o. in rats).

The test system of data set [4] is edema induced by dextran. The data set is described as follows: Anti-inflammatory activity, dextran-induced edema. It counts as in vivo, rat. The note with it: po; 500 mg/kg p.o. rat; read-out: % inhibition of edema induced by dextran.
Method: (§1) Pharmacological tests were carried out to evaluate the acute toxicity, anti-inflammatory and capillary permeability action, antipyretic, analgesic and anti-spasmodic in vitro action.
The test system of data set [5] is edema induced by formalin. The data set is described as follows: Anti-inflammatory activity, formalin-induced edema. It counts as in vivo, rat. The note with it: po; 500 mg/kg p.o. rat; read-out: % inhibition of edema induced by formalin.
Method: as §1
Data set [6] in a line: Antipyretic activity. Type of data set: in vivo, rat.
Method: as §1
Data set [7] in a line: Analgesic activity, hot plate test. The note with it: po; 500 mg/kg p.o. mouse; hot plate test; read-out: Analgesic activity, increase of reaction time %. Type of data set: in vivo, mouse.
Method: as §1
Data set [8] in a line: Analgesic activity, protection from writhing. The note with it: po; 500 mg/kg p.o. mouse; read-out: Analgesic activity, protection from writhing %. It counts as in vivo, mouse. In general terms: An intraperitoneal irritant provokes the stretching counted in writhing tests.
Method: as §1
Data set [9] concerns spasm by histamine. The data set can be described thus: Antispasmodic activity in vitro, spasm by histamine.
Method: as §1
Data set [10] has as its system spasm by acetylcholine. The data set is described as follows: Antispasmodic activity in vitro, spasm by acetylcholine.
Method: as §1
Data set [11] can be described thus: Analgesic action (overall). The note with it: mouse, in vivo.
Method: as §1
The conditions of data set [12]: background; cited from earlier work.
In data set [13] the test system is capillary permeability. The data set can be described thus: Capillary permeability test. The note with it: 500 mg/kg p.o. mouse.
Method: as §1
Data set [14] concerns granuloma. The data set is described as follows: Granuloma cotton pellet test. The note with it: Rattus norvegicus, po, read-out: % inhibition of granuloma.
Method: as §1

Each structure is given as a SMILES string.

For orientation: LD50 means the dose expected to kill half of the subjects tested. A higher LD50 goes with lower toxicity.

Consider `CCOC1O[C@H]([C@@H](COCc2ccccc2)OCc2ccccc2)[C@H](OCc2ccccc2)[C@H]1O` (stereo partly drawn) [I, ethyl 3,5,6-tri-O-benzyl-D-glucofuranoside, reference compound], for which the LD50 in data set [1] is > 4000 mg/kg. In addition, in data set [2], the “Oral toxicity / tolerance (in words)” value was “well tolerated”. Moreover, the inhibition in vivo at 500 mg/kg in [3] is 20%; in data set [4], 0%; in data set [5], 14%; in data set [8] it was 0%. In addition, in data set [6] (400 mg/kg p.o. rat, aspirin = 100), the “Antipyretic activity (potency in comparison with aspirin = 100)” value amounted to 9%. Further, the “Antipyretic action (in words)” value in data set [6] (rat, in vivo) is “little or no activity”. In addition, the change in vivo at 500 mg/kg in data set [7] was determined as 10%. The “Antispasmodic activity in vitro, ED50, inhib. of spasm by histamine” value in data set [9] stood at 20 µg/mL. Moreover, in data set [10], the “Antispasmodic activity in vitro, ED50, inhib. of spasm by acetylcholine” value was found to be 30 µg/mL. Moreover, the “Analgesic action (in words)” value in data set [11] is “moderate or nil”. In addition, in data set [12], the “Known pharmacological activity (in words)” value was “anti-inflammatory and anti-allergic activity”. Besides, in data set [13], the “Capillary permeability, decrease %” value amounted to 48%. For the same compound, the inhibition in vivo at 200 mg/kg in data set [14] worked out at 0%.

Source of the values: patent US4251520A, “Glucofuranose derivatives” (priority 1976, dated 1981).
